# How the values were obtained:
# caspase 3/7 [1] = assay: Caspase 3/7 activity in HL-60 cells with staurosporine; type: cell-based, human; details: HL-60, staurosporine
# [2] = system: Peripheral blood mononuclear cell (PBMC); type: cell-based, human
# HL-60 cells = details: for effect on staurosporine cytotoxicity (cell number): chimera at forty-eight hours
# caspase 3/7 [3] = assay: Caspase 3/7 activity in monocytes treated with cytotoxic drugs; type: cell-based, human
# [4] = Protease sensitivity during expression in Pichia pastoris; details: high concentrations of protease inhibitors
# Experimental: In Pichia, GM-CSF-Bcl-XL was expressed intracellularly. The expression was monitored by Western blot.
# The cells were harvested by centrifugation at 5,000 g, and, washed with binding buffer (5 mM imidazole, 20 mM Tris/Cl pH 7.9, 0.5M NaCl) containing 2 protease inhibitor tablets, COMPLETE PROTEASE INHIBITOR COCKTAIL EDTA-free (Roche Diagnostics, Indianapolis, Ind.),/50 ml of buffer. Cells were lysed by adding 100 g of acid washed glass beads (0.5 g of beads/ml of initial culture) with 1 cycle of 5 minutes, frequency 30 Hz, in a mixer mill (Retsch MM200, Haan, Del.). The cellular debris were eliminated by centrifugation at 18,000 g, 5 minutes at 4° C.
compound,measurement,setting,value
"Nc1ccn([C@@H]2O[C@H](CO)[C@@H](O)[C@@H]2O)c(=O)n1 [cytarabine, reference compound]",effect on growth of CFU-GM and BFU-E colonies,CD34^+ cells,drastically impaired
"GM-CSF: human granulocyte-macrophage colony-stimulating factor, a cytokine",effect on caspase activity / apoptosis,caspase 3/7 [1],reduced
same,prosurvival activity in the presence of AG 490,[2],completely inhibited
same,prosurvival activity in the presence of staurosporine,[2],largely inhibited
same,effect on staurosporine cytotoxicity (cell number),"HL-60 cells; HL-60, staurosporine",not able to block the cytotoxic effect of staurosporine
"GM-CSF-Bcl-XL: chimeric protein: human GM-CSF fused via glycine-serine-threonine linker to full length human Bcl-XL, N-terminal His tag, expressed in E. coli (SEQ ID NO:1)",inhibition of caspase 3/7 activity compared with GM-CSF at the same concentration,caspase 3/7 [3],more effective
same,reduction of caspase activity,"caspase 3/7 [3]; monocytes, 2.4 μM, cytotoxic drugs",more than 50%
same,sensitivity to proteolysis,[4],very sensitive to proteolysis
same,protection of PBMC from kinase inhibitors / apoptosis,[2],protected PBMC from both kinase inhibitors in a dose dependent manner
same,increase in cell viability in the presence of AG409,[2]; 0.24 µM,30%
same,increase in cell viability in the presence of staurosporine,[2]; 0.24 µM,50%
same,time of maximum effect on proliferation,HL-60 cells; HL-60,48 h
same,proliferation activity higher than in cells treated with the same molar amount of GM-CSF,"HL-60 cells; HL-60, 48 hours",30%
same,duration of protection from staurosporine,"HL-60 cells; HL-60, staurosporine",at least seventy-two hours
same,effect on staurosporine cytotoxicity (cell number),"HL-60 cells; HL-60, staurosporine",approximately the same number of cells as control cultures without staurosporine
same,reduction in cell death,"HL-60 cells; HL-60, with staurosporine, seventy-two hours, versus control",30%
same,cells that had died,"HL-60 cells; HL-60, with staurosporine, seventy-two hours, 50% of control cells had died",20%
same,protection of colonies in the presence of cytarabine,"CD34^+ cells; CD34+ cells, cytarabine",selectively protected the CFU-GM colonies relative to BFU-E
same,colonies under cytokine deprivation,"CD34^+ cells; CD34+ cells, essential medium, no growth factor/cytokines",protected myeloid precursors from cytokine deprivation
same,effect on number of colonies,"CD34^+ cells; CD34+ cells, supplemented medium (SCF, erythropoietin, cytokines)",two-fold
"CN[C@@H]1C[C@H]2O[C@@](C)([C@@H]1OC)n1c3ccccc3c3c4c(c5c6ccccc6n2c5c31)C(=O)NC4 [staurosporine, reference compound]",effect on caspase activity / apoptosis,caspase 3/7 [1],induced apoptosis at the highest levels
